From paper PMC9344054, “Studies on Chemical Characterization of Ginkgo Amillaria Oral Solution and Its Drug–Drug Interaction With Piceatannol 3′-O-β-D-Glucopyranoside for Injection” (Frontiers in Pharmacology, 2022)

Experiments:
UGT1A9 = assay: Metabolism of PG based on UGTs, rat liver microsomes with inhibitor niflumic acid; type: in vitro ADME; conditions: PG 10 μmol L−1, niflumic acid 10 μmol L−1, p < 0.0001
Experimental: (§1) The incubation mixtures consisted of 1 mg mL^−1 of rat liver microsomes, 1 mmol L^−1 of UDPGA and 10 μmol L^−1 of PG, tris-HCl (pH = 7.4) and inhibitor (pazopanib (50 μmol L^−1)), niflumic acid (10 μmol L^−1), and fluconazole (50 μmol L^−1). The incubation system was the same as that in “2.4.1.,” whereas polydatin (20 μg mL^−1) was selected as the IS. Detection and analysis conditions based on UPLC-QQQ-MS were the same as those in “2.4.2.” The MRM transitions, cone voltage, and collision voltage of the target compounds and IS are shown in Supplementary Table S1.

UGT1A1 = assay: Metabolism of PG based on UGTs, rat liver microsomes with inhibitor pazopanib; type: in vitro ADME; conditions: PG 10 μmol L−1, pazopanib 50 μmol L−1, p > 0.05
Experimental: as §1

UGT2B7 = assay: Metabolism of PG based on UGTs, rat liver microsomes with inhibitor fluconazole; type: in vitro ADME; conditions: PG 10 μmol L−1, fluconazole 50 μmol L−1, p > 0.05
Experimental: as §1

[1] = Identification of metabolites of PG in vivo (plasma, bile, urine, feces); set-up: species or system rat; conditions: rats
Experimental: Nine Sprague–Dawley (SD) male rats (200 ± 20 g) were purchased from Beijing Vital River Laboratory Animal Technology Co., Ltd. (license number: SCXK (Beijing) 2016-0006).
The plasma samples were the same as in the pharmacokinetic experiment; PGI (9 mg kg^−1) was injected into the tail vein of three rats to collect the bile samples for 0–6 h, and saline (9 mg kg^−1) was injected into the tail vein of three rats to collect the normal bile samples. PGI (9 mg kg^−1) was injected into the tail vein of three rats to collect urine (0–4 h) samples and feces (0–6 h) samples after collecting the blank urine and feces samples. All samples were stored at −80℃ for further analysis.
(§2) Plasma samples: 40 μl of plasma samples at different time points were taken and mixed together in a 2 ml centrifuge tube; 1,280 μl of ice acetonitrile was added. The mixture was vortexed for 3 min and centrifuged at 13,200 × g under 4℃ for 10 min. The supernatant was transferred to another centrifuge tube and dried with nitrogen, re-dissolved with 60 μl of 80% methanol-H2O (v/v). For further LC-MS analysis, 3 μl of the supernatant was injected.
Bile samples: 100 μl of bile sample was taken using a 0.22 μm filter, the mixture was vortexed for 3 min, and centrifuged at 13200 × g under 4℃ for 10 min. For further LC-MS analysis, 3 μl of the supernatant was injected.
Fecal samples: 100 mg of the sample was weighed into a 1.5 ml centrifuge tube, 400 μl of ice acetonitrile was added, and the mixture was vortexed for 3 min and centrifuged at 13,200 × g under 4℃ for 10 min. For further LC-MS analysis, 3 μl of the supernatant was injected.
as §2, with “Urine sample: 600” for “Plasma samples: 40”, “urine sample was” for “plasma samples at different time points were”, “taken out,” for “taken”, “2,400” for “mixed together in a 2 ml centrifuge tube; 1,280”
An ultrahigh-performance liquid chromatography-mass spectrometer (Waters, United States) was performed for separation and detection. A Waters ACQUITY UPLC HSS T3 column (2.1 × 100 mm, 1.8 μm) was employed at 30℃ with a flow rate of 0.3 ml min^−1. The mobile phase consisted of acetonitrile (B) and water containing 0.1% FA ([…]). The following linear gradient was used: 0–0.5 min: 5–7% B; 0.5–2.5 min: 7–8.8% B; 2.5–5.5 min: 8.8–16.9% B; 5.5–14 min: 16.9–24.7% B; 14–23 min: 24.7–52% B; and 23–30 min: 52–95% B.
DDA was performed using the Q Exactive™ hybrid quadrupole–Orbitrap mass spectrometer both in negative and positive mode. […]

[2] = Stability of PG in rat blank plasma (method validation); type: in vitro ADME; set-up: unit not given here; conditions: n = 6
Experimental: UPLC-MS/MS method validation was performed according to the FDA bioanalytical method validation guidance. The method was validated in terms of linearity, accuracy, precision, extraction recovery, matrix effect, and stability.
The result of specificity is shown in Supplementary Figure S12. The RTs of PG and polydatin were 1.47 and 1.70 min, respectively. Their chromatographic peaks were in good shape, and there was no interference from other endogenous substances. The regression equation of PG was y = 0.584781x − 0.47063, and the r ^2 and range of the linear were 0.9929 and 0.001–40 μg mL^−1, respectively. LLOQ was 0.5 ng mL^−1. The RSD of the intraday and interday precision was less than 15%, and the accuracy was between 80% and 120% (Supplementary Table S11). […] The stability of PG was less than 12.83% (Supplementary Table S13 ). It was shown that the established method complies with the relevant regulations of pharmacokinetics.

[3] = rats, 2020, cited from earlier work

## OC[C@H]1O[C@@H](Oc2cc(/C=C/c3cc(O)cc(O)c3)ccc2O)[C@H](O)[C@@H](O)[C@@H]1O [PG, Piceatannol-3′-O-β-D-glucopyranoside]
UGT1A9
  metabolism of PG by UGT1A9: mainly metabolized by UGT1A9
UGT1A1
  contribution of UGT1A1 to metabolism of PG: contributed little or no participation
UGT2B7
  contribution of UGT2B7 to metabolism of PG: contributed little or no participation
[1]
  metabolites in fecal samples: No metabolites were detected
[1]; PGI 9 mg kg−1 tail vein
  metabolic route of PG in vivo: mainly undergoes a phase II binding reaction mediated by UGT and SULT
[1]; PGI 9 mg kg−1 tail vein, bile 0–6 h, all phase II
  number of metabolites identified in bile: five
[1]; PGI 9 mg kg−1 tail vein, all phase II metabolites
  number of metabolites identified in plasma: four
[2]; 4h, Con. 0.005 μg/mL
  Stability, Measured con.: 111.33
[2]; 4h, Con. 5 μg/mL
  Stability, Measured con.: 117.12
[2]; 4h, Con. 30 μg/mL
  Stability, Measured con.: 98.21
[2]; 24h, Con. 0.005 μg/mL
  Stability, Measured con.: 116.33
[2]; 24h, Con. 5 μg/mL
  Stability, Measured con.: 115.03
[2]; 24h, Con. 30 μg/mL
  Stability, Measured con.: 98.37
[2]; 15 days, Con. 0.005 μg/mL
  Stability, Measured con.: 92.00
[2]; 15 days, Con. 5 μg/mL
  Stability, Measured con.: 100.78
[2]; 15 days, Con. 30 μg/mL
  Stability, Measured con.: 96.48
[2]; Freeze-thaws stability (3 times), Con. 0.005 μg/mL
  Stability, Measured con.: 107.66
[2]; Freeze-thaws stability (3 times), Con. 5 μg/mL
  Stability, Measured con.: 104.58
[2]; Freeze-thaws stability (3 times), Con. 30 μg/mL
  Stability, Measured con.: 105.11
[3]; 40.0 mg kg−1 PG, tail vein and intragastric administration, ref Xu
  excretion of the prototype of PG: mainly excreted through urine
[3]; ref Chai, 2019, Xu
  distribution: widely distributed
  elimination rate: fast elimination rate
  excretion: mainly excreted by urine
  kinetics: linear kinetics
